Measurements from US7767659B2, “Synthesis of naturally occurring ecteinascidins and related compounds” (Pharma Mar, S.A., priority 2002, dated 2010).

Columns and labels:
[1] = tested on: A-549; test: cells; conditions: Homo sapiens, A549, 48 h; for GI50: read-out: A549 GI50; for CC50: read-out: A549 LC50; for IC (TGI): read-out: A549 TGI
Experimental: (§1) This form of the assay employs 96 well cell culture microplates of 9 mm diameter (Faircloth, 1988; Mosmann, 1983). Most of the cell lines are obtained from American Type Culture Collection (ATCC) derived from different human cancer types.
(§2) Cells are maintained in RPMI 1640 10% FBS, supplemented with 0.1 g/l penicillin and 0.1 g/l streptomycin sulfate and then incubated at 37° C., 5% CO2 and 98% humidity. For the experiments, cells were harvested from subconfluent cultures using trypsin and resuspended in fresh medium before plating.
(§3) Cells are seeded in 96 well microtiter plates, at 5×10^3 cells per well in aliquots of 195 μl medium, and they are allowed to attach to the plate surface by growing in drug free medium for 18 hours. Afterward, samples are added in aliquots of 5 μl in a ranging from 10 to 10^−8 μg/ml, dissolved in DMSO/EtOH/PBS (0.5:0.5:99). After 48 hours exposure, the antitumor effect are measured by the SRB methodology: cells are fixed by adding 50 μl of cold 50% (wt/vol) trichloroacetic acid (TCA) and incubating for 60 minutes at 4° C. Plates are washed with deionized water and dried. One hundred μl of SRB solution (0.4% wt/vol in 1% acetic acid) is added to each microtiter well and incubated for 10 minutes at room temperature. Unbound SRB is removed by washing with 1% acetic acid. Plates are air dried and bound stain is solubilzed with Tris buffer. Optical densities are read on a automated spectrophotometric plate reader at a single wavelength of 490 nm.
(§4) The values for mean +/− SD of data from triplicate wells are calculated. Some parameters for cellular responses can be calculated: GI=growth inhibition, TGI=total growth inhibition (cytostatic effect) and LC=cell killing (cytotoxic effect).

[2] = tested on: HT-29; test: cells; conditions: Homo sapiens, HT-29, 48 h; for GI50: read-out: HT29 GI50; for CC50: read-out: HT29 LC50; for IC (TGI): read-out: HT29 TGI
Experimental: as §1, §2, §3, §4

[3] = tested on: LoVo; test: cells; conditions: Homo sapiens, LoVo, 48 h; for GI50: read-out: LOVO GI50; for CC50: read-out: LOVO LC50; for IC (TGI): read-out: LOVO TGI
Experimental: as §1, §2, §3, §4

[4] = tested on: DU-145; test: Inhibition of cells growth by colorimetric assay (SRB); conditions: Homo sapiens, DU-145, 48 h; for GI50: read-out: DU145 GI50; for CC50: read-out: DU145 LC50; for IC (TGI): read-out: DU145 TGI
Experimental: as §1, §2, §3, §4

[5] = tested on: HeLa-APL; test: as above; conditions: Homo sapiens, 48 h; for GI50: read-out: HELA-APL GI50; for CC50: read-out: HELA-APL LC50; for IC (TGI): read-out: HELA-APL TGI
Experimental: as §1, §2, §3, §4

[6] = tested on: HeLa; test: as above; conditions: Homo sapiens, HeLa, 48 h; for GI50: read-out: HELA GI50; for CC50: read-out: HELA LC50; for IC (TGI): read-out: HELA TGI
Experimental: as §1, §2, §3, §4

[7] = tested on: IGROV-1; test: as above; conditions: Homo sapiens, IGROV-1, 48 h; for GI50: read-out: IGROV GI50; for CC50: read-out: IGROV LC50; for IC (TGI): read-out: IGROV TGI
Experimental: as §1, §2, §3, §4

[8] = tested on: IGROV-ET; test: as above; conditions: Homo sapiens, 48 h; for GI50: read-out: IGROV-ET GI50; for CC50: read-out: IGROV-ET LC50; for IC (TGI): read-out: IGROV-ET TGI
Experimental: as §1, §2, §3, §4

[9] = tested on: K-562; test: as above; conditions: Homo sapiens, K562, 48 h; for GI50: read-out: K562 GI50; for CC50: read-out: K562 LC50; for IC (TGI): read-out: K562 TGI
Experimental: as §1, §2, §3, §4

[10] = tested on: LNCaP; test: as above; conditions: Homo sapiens, LNCaP, 48 h; for GI50: read-out: LNCAP GI50; for CC50: read-out: LNCAP LC50; for IC (TGI): read-out: LNCAP TGI
Experimental: as §1, §2, §3, §4

[11] = tested on: LoVo-Dox; test: as above; conditions: Homo sapiens, 48 h; for GI50: read-out: LOVO-DOX GI50; for CC50: read-out: LOVO-DOX LC50; for IC (TGI): read-out: LOVO-DOX TGI
Experimental: as §1, §2, §3, §4

[12] = tested on: PANC-1; test: as above; conditions: Homo sapiens, PANC-1, 48 h; for GI50: read-out: PANC-1 GI50; for CC50: read-out: PANC-1 LC50; for IC (TGI): read-out: PANC-1 TGI
Experimental: as §1, §2, §3, §4

[13] = tested on: SK-BR-3; test: as above; conditions: Homo sapiens, SK-BR-3, 48 h; for GI50: read-out: SK-BR3 GI50; for CC50: read-out: SK-BR3 LC50; for IC (TGI): read-out: SK-BR3 TGI
Experimental: as §1, §2, §3, §4

[14] = tested on: SK-MEL-28; test: as above; conditions: Homo sapiens, SK-MEL-28, 48 h; for GI50: read-out: MEL-28 GI50; for CC50: read-out: MEL-28 LC50; for IC (TGI): read-out: MEL-28 TGI
Experimental: as §1, §2, §3, §4

SMILES: COC1=C(C)C(=O)C2=C(C1=O)[C@@H]1C3[C@@H]4SC[C@]5(NCCc6c5[nH]c5ccccc65)C(=O)OC[C@@H](c5c6c(c(C)c(OC(C)=O)c54)OCO6)N3[C@@H](O)[C@H](C2)N1C (stereo partly drawn) [ET-736-quinone]
- GI50 [1]: 25.6 nM
- CC50 [1]: 109 nM
- IC (TGI) [1]: 52.9 nM
- GI50 [2]: 51.2 nM
- CC50 [2]: 13000 nM
- IC (TGI) [2]: 128 nM
- GI50 [3]: 265 nM
- CC50 [3]: 1300 nM
- IC (TGI) [3]: 596 nM
- GI50 [4]: 45.1 nM
- CC50 [4]: 129 nM
- IC (TGI) [4]: 76.3 nM
- GI50 [5]: 55.5 nM
- CC50 [5]: 111 nM
- IC (TGI) [5]: 78.4 nM
- GI50 [6]: 3320 nM
- CC50 [6]: 114 nM
- IC (TGI) [6]: 6140 nM
- GI50 [7]: 67.1 nM
- CC50 [7]: 735 nM
- IC (TGI) [7]: 215 nM
- GI50 [8]: 510 nM
- CC50 [8]: 1200 nM
- IC (TGI) [8]: 782 nM
- GI50 [9]: 4.96 nM
- CC50 [9]: 105 nM
- IC (TGI) [9]: 13.7 nM
- GI50 [10]: 24.8 nM
- CC50 [10]: 79.9 nM
- IC (TGI) [10]: 44.6 nM
- GI50 [11]: 747 nM
- CC50 [11]: 13000 nM
- IC (TGI) [11]: 3280 nM
- GI50 [12]: 394 nM
- CC50 [12]: 13000 nM
- IC (TGI) [12]: 957 nM
- GI50 [13]: 5.33 nM
- CC50 [13]: 192 nM
- IC (TGI) [13]: 11.3 nM
- GI50 [14]: 123 nM
- CC50 [14]: 718 nM
- IC (TGI) [14]: 300 nM

SMILES: COC1=C(C)C(=O)C2=C(C1=O)C1C3[C@@H]4SCC(=O)C(=O)OC[C@@H](c5c6c(c(C)c(OC(C)=O)c54)OCO6)N3[C@@H](O)[C@H](C2)N1C (stereo partly drawn) [Et-594-quinone]
- GI50 [1]: 2350 nM
- CC50 [1]: 10300 nM
- IC (TGI) [1]: 4910 nM
- GI50 [2]: 653 nM
- CC50 [2]: 16300 nM
- IC (TGI) [2]: 1710 nM
- GI50 [3]: 759 nM
- CC50 [3]: 16300 nM
- IC (TGI) [3]: 2910 nM
- GI50 [4]: 1990 nM
- CC50 [4]: 14600 nM
- IC (TGI) [4]: 5390 nM
- GI50 [5]: 398 nM
- CC50 [5]: 1140 nM
- IC (TGI) [5]: 674 nM
- GI50 [6]: 343 nM
- CC50 [6]: 1120 nM
- IC (TGI) [6]: 620 nM
- GI50 [7]: 452 nM
- CC50 [7]: 3640 nM
- IC (TGI) [7]: 958 nM
- GI50 [8]: 4370 nM
- CC50 [8]: 16300 nM
- IC (TGI) [8]: 9110 nM
- GI50 [9]: 137 nM
- CC50 [9]: 1620 nM
- IC (TGI) [9]: 478 nM
- GI50 [10]: 274 nM
- CC50 [10]: 901 nM
- IC (TGI) [10]: 498 nM
- GI50 [11]: 6270 nM
- CC50 [11]: 16300 nM
- IC (TGI) [11]: 13100 nM
- GI50 [12]: 1580 nM
- CC50 [12]: 14900 nM
- IC (TGI) [12]: 4860 nM
- GI50 [13]: 302 nM
- CC50 [13]: 1160 nM
- IC (TGI) [13]: 593 nM
- GI50 [14]: 413 nM
- CC50 [14]: 1320 nM
- IC (TGI) [14]: 738 nM
